Test results: PubChem BioAssay (NCI)
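Growth conditions: 96-well plates. Treatment: test compound, 48 hours, 5 concentrations. Analysis: linear interpolation between bracketing concentrations; unreached endpoints set to highest concentration. TGI marks complete inhibition of growth.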

Assays:
Experiment in all cases: NCI anticancer screen, dose series, 48 h
[1] = test system: DU-145 prostate
[2] = test system: SW-620 colon
[3] = test system: HT29 colon
[4] = test system: CCRF-CEM leukemia
[5] = test system: OVCAR-3 ovarian
[6] = test system: KM12 colon
[7] = test system: EKVX NSCLC
[8] = test system: UACC-257 melanoma
[9] = test system: MDA-MB-231 breast
[10] = test system: PC-3 prostate
[11] = test system: A498 renal
[12] = test system: HCT-116 colon
[13] = test system: MDA-MB-435
[14] = test system: K-562 leukemia
[15] = test system: UO-31 renal
[16] = test system: SK-MEL-5 melanoma
[17] = test system: SNB-19 CNS
[18] = test system: HS 578T breast
[19] = test system: U251 CNS
[20] = test system: MCF7 breast
[21] = test system: SK-MEL-28 melanoma
[22] = test system: SF-295 CNS
[23] = test system: ACHN renal
[24] = test system: T-47D breast
[25] = test system: SN12C renal
[26] = test system: NCI-H23 lung
[27] = test system: OVCAR-4 ovarian
[28] = test system: MOLT-4 leukemia
[29] = test system: M14 melanoma
[30] = test system: MALME-3M melanoma
[31] = test system: HCC-2998 colon
[32] = test system: SR leukemia
[33] = test system: HOP-92 NSCLC
[34] = test system: RXF 393 renal
[35] = test system: IGROV1 ovarian
[36] = test system: SK-OV-3 ovarian
[37] = test system: SNB-75 CNS
[38] = test system: RPMI-8226 leukemia
[39] = test system: CAKI-1 renal
[40] = test system: OVCAR-8 ovarian
[41] = test system: NCI-H226 lung
[42] = test system: BT-549 breast
[43] = test system: COLO 205 colon
[44] = test system: NCI/ADR-RES ovarian
[45] = test system: 786-0 renal
[46] = test system: A549 NSCLC
[47] = test system: OVCAR-5 ovarian
[48] = test system: TK-10 renal
[49] = test system: UACC-62 melanoma
[50] = test system: MDA-N
[51] = test system: HCT-15 colon
[52] = test system: SF-268 CNS
[53] = test system: HOP-62 NSCLC
[54] = test system: LOX IMVI melanoma
[55] = test system: NCI-H522 lung
[56] = test system: SK-MEL-2 melanoma
[57] = test system: SF-539 CNS
[58] = test system: HL-60(TB) leukemia
[59] = test system: NCI-H460 lung

In the case of `Nc1ccccc1N=Nc1c(S(=O)(=O)O)cc2cc(S(=O)(=O)O)cc(O)c2c1O`, the TGI [1] is reported as > 100 µM, the TGI [2] is reported as > 100 µM and the TGI [3] is reported as > 100 µM. The TGI [4] was > 100 µM, the TGI [5] was > 100 µM and the TGI [6] was > 100 µM. For the same molecule, the TGI [7] was > 100 µM, the TGI [8] was > 100 µM and the TGI [9] was > 100 µM. The TGI [10] was > 100 µM, the TGI [11] was > 100 µM and the TGI [12] was > 100 µM. For the same molecule, the TGI [13] was > 100 µM, the TGI [14] was > 100 µM and the TGI [15] was > 100 µM. For the same molecule, the TGI [16] was > 100 µM, the TGI [17] was > 100 µM and the TGI [18] was > 100 µM. The TGI [19] was > 100 µM, the TGI [20] was > 100 µM and the TGI [21] was > 100 µM. For the same molecule, the TGI [22] was > 100 µM, the TGI [23] was > 100 µM and the TGI [24] was > 100 µM. The TGI [25] was > 100 µM, the TGI [26] was > 100 µM and the TGI [27] was > 100 µM. The TGI [28] was > 100 µM, the TGI [29] was > 100 µM and the TGI [30] was > 100 µM. For the same molecule, the TGI [31] was > 100 µM, the TGI [32] was > 100 µM and the TGI [33] was > 100 µM. For the same molecule, the TGI [34] was > 100 µM, the TGI [35] was > 100 µM and the TGI [36] was > 100 µM. The TGI [37] was > 100 µM, the TGI [38] was > 100 µM and the TGI [39] was > 100 µM. For the same molecule, the TGI [40] was > 100 µM, the TGI [41] was > 100 µM and the TGI [42] was > 100 µM. The TGI [43] was > 100 µM, the TGI [44] was > 100 µM and the TGI [45] was > 100 µM. For the same molecule, the TGI [46] was > 100 µM, the TGI [47] was > 100 µM and the TGI [48] was > 100 µM. For the same molecule, the TGI [49] was > 100 µM, the TGI [50] was > 100 µM and the TGI [51] was > 100 µM. For the same molecule, the TGI [52] was > 100 µM, the TGI [53] was > 100 µM and the TGI [54] was > 100 µM. The TGI [55] was > 100 µM.

For `NC(N)=NC(N)=Nc1ccccc1` (tested in a mixture with another compound), the TGI [1] was > 100 µM, the TGI [2] was > 100 µM and the TGI [3] was > 100 µM. The TGI [4] was > 100 µM, the TGI [5] was > 100 µM and the TGI [6] was > 100 µM. The TGI [7] was > 100 µM, the TGI [8] was > 100 µM and the TGI [9] was > 100 µM. For the same molecule, the TGI [10] was > 100 µM, the TGI [11] was > 100 µM and the TGI [12] was > 100 µM. For the same molecule, the TGI [13] was > 100 µM, the TGI [14] was > 100 µM and the TGI [15] was > 100 µM. The TGI [16] was > 100 µM, the TGI [17] was > 100 µM and the TGI [18] was > 100 µM. For the same molecule, the TGI [19] was > 100 µM, the TGI [20] was > 100 µM and the TGI [21] was > 100 µM. For the same molecule, the TGI [22] was > 100 µM, the TGI [23] was > 100 µM and the TGI [24] was 81.4 µM. For the same molecule, the TGI [25] was > 100 µM, the TGI [56] was > 100 µM and the TGI [26] was > 100 µM. For the same molecule, the TGI [57] was > 100 µM, the TGI [27] was > 100 µM and the TGI [29] was > 100 µM. The TGI [30] was > 100 µM, the TGI [31] was > 100 µM and the TGI [34] was > 100 µM. The TGI [35] was > 100 µM, the TGI [36] was > 100 µM and the TGI [37] was > 100 µM. For the same molecule, the TGI [58] was > 100 µM, the TGI [39] was > 100 µM and the TGI [40] was > 100 µM. The TGI [41] was > 100 µM, the TGI [42] was > 100 µM and the TGI [43] was > 100 µM. The TGI [44] was > 100 µM, the TGI [45] was > 100 µM and the TGI [46] was > 100 µM. The TGI [59] was > 100 µM, the TGI [47] was > 100 µM and the TGI [48] was > 100 µM. For the same molecule, the TGI [49] was > 100 µM, the TGI [50] was > 100 µM and the TGI [51] was > 100 µM. The TGI [52] was > 100 µM, the TGI [53] was > 100 µM and the TGI [54] was > 100 µM. For the same molecule, the TGI [55] was > 100 µM.
